{"source": "paper PMC3571899", "about": "“M48U1 CD4 mimetic has a sustained inhibitory effect on cell-associated HIV-1 by attenuating virion infectivity through gp120 shedding” (Retrovirology, 2013)", "key": {"HIV-1 Bal [1]": {"tested_on": "HIV-1 Bal", "assay": "Antiviral EC50 in PBMCs against HIV-1 Bal", "assay_type": "cell-based", "settings": "linear regression analysis, one experiment with 6 replicates"}, "HIV-1 Bal infected PBMCs": {"tested_on": "HIV-1 Bal infected PBMCs", "assay": "Gag p24 production by infected PBMCs during 24 h ARV treatment (p24 capture ELISA)", "assay_type": "cell-based", "settings": "24 h treatment at 100x EC50, Gag p24 capture ELISA", "procedure": "Figure 1 M48U1 has a memory effect on cell-associated virus. A) The Trojan Horse transmission concept was modeled in vitro using HIV-infected PBMCs which were treated for 24 h with antiretrovirals (ARVs) from different classes at 100x EC50 concentrations. Subsequently, virus production was quantified using a Gag p24 ELISA. To mimic escape from vaginal drug pressure, the infected cells were then incubated in ARV-free medium for three consecutive periods of 24 h. Infectivity of newly produced virions was determined after each period by titration in TZM-bl cells and PBMCs using equal amounts of p24. […] Values represent the 50% Tissue Culture Infective Dose (TCID50)/ml as measured in one experiment carried out in triplicate.\nPHA/IL-2 stimulated PBMCs were infected with 2 x 10^-3 multiplicity of infection (MOI) of the CCR5-tropic subtype B strain Bal for three days and subsequently washed extensively to remove the inoculum (Figure 1A). […] The virions produced from these cultures were then quantified in quadruplicate by a Gag p24 capture ELISA [18]."}, "HIV-1 Bal [2]": {"tested_on": "HIV-1 Bal", "assay": "Infectivity of de novo virus from pretreated, washed infected PBMCs (memory effect)", "assay_type": "cell-based", "settings": "for relative titer of de novo produced virions: PBMCs pretreated 24 h at 100x EC50, washed, 24 h drug-free, titrated on TZM-bl cells with equal p24, relative to untreated control", "procedure": "Figure 1 M48U1 has a memory effect on cell-associated virus. A) The Trojan Horse transmission concept was modeled in vitro using HIV-infected PBMCs which were treated for 24 h with antiretrovirals (ARVs) from different classes at 100x EC50 concentrations. Subsequently, virus production was quantified using a Gag p24 ELISA. To mimic escape from vaginal drug pressure, the infected cells were then incubated in ARV-free medium for three consecutive periods of 24 h. Infectivity of newly produced virions was determined after each period by titration in TZM-bl cells and PBMCs using equal amounts of p24. B) Production of Gag p24 by infected PBMCs during 24 h treatment with eleven ARVs: the non-nucleoside reverse transcriptase inhibitors (NNRTIs; blue) UC781 and TMC120, the nucleotide reverse transcriptase inhibitor tenofovir (PMPA; red), the entry inhibitors (grey) maraviroc (MVC), T-20, C34-chol, griffithsin (GRFT) and M48U1, the protease inhibitors (green) lopinavir (LPV) and saquinavir (SQV), and the integrase inhibitor raltegravir (RAL). Values are expressed relative to untreated control cultures and represent the mean +/− SEM of at least three independent experiments, each carried out in triplicate. C) Bal infectivity of de novo produced virus by pretreated infected PBMCs in absence of drug during three consecutive periods of 24 h. Values are expressed relative to untreated control cultures and represent the mean +/− SEM of at least three independent experiments, each carried out in triplicate. D) Infectivity of de novo produced transmitted/founder viruses REJO and THRO (subtype B) and Bal by M48U1 treated infected PBMCs in absence of drug during three consecutive periods of 24 h. Values are expressed relative to untreated control cultures. E) Infectivity of wild type (black) and M48U1-resistant (red) Bal virus produced during a 24 h period in absence of drug by pretreated infected PBMCs. Values represent the 50% Tissue Culture Infective Dose (TCID50)/ml as measured in one experiment carried out in triplicate.\nPHA/IL-2 stimulated PBMCs were infected with 2 x 10^-3 multiplicity of infection (MOI) of the CCR5-tropic subtype B strain Bal for three days and subsequently washed extensively to remove the inoculum (Figure 1A). Next, cells were incubated for 24 hours with ARVs from different classes at 100x EC50 concentrations for each compound (Table 1). The virions produced from these cultures were then quantified in quadruplicate by a Gag p24 capture ELISA [18].\nNext, we evaluated whether these ARVs affected the infectivity of the virus produced. PBMCs were infected as described above and were washed extensively to remove inhibitor and incubated in fresh medium for a new round of viral replication. After 24 h, supernatant was harvested, and then assessed for its ability to infect TZM-bl cells using identical viral inocula (based on equal amounts of Gag p24). The obtained viral titers were expressed as a percentage, relative to the untreated control cultures (Figure 1C). […] A smaller loss in titer was observed after treatment with the PIs saquinavir (relative titer of 47%) and lopinavir (relative titer of 14%), and the carbohydrate binding protein griffithsin (relative titer of 31%). The same samples were assayed in a multi-cycle infectivity assay with PBMCs, with similar results (Figure 1C). […]"}, "H9+ cells": {"tested_on": "H9+ cells", "settings": "pretreatment of infected cells, syncytium formation; cited from earlier work", "text": "We hypothesized that M48U1 associates with gp120 molecules expressed on the cell membrane of infected cells prior to viral budding. If M48U1 dissociates very slowly from its target and is retained after washing, this could cause the production of defective virions. However, if this were the case, one would expect a similar attenuation effect for the tight-binding RT inhibitors UC781 and TMC120."}, "[3]": {"settings": "Human immunodeficiency virus 1, PBMC"}}, "note": "pEC50: −log10 of the molar value.", "data": [{"compound": "Cc1cc(C)c(Nc2ccnc(Nc3ccc(C#N)cc3)n2)c(C)c1", "note": "[Dapivirine (TMC120)]", "values": [{"measurement": "pEC50", "setting": "HIV-1 Bal [1]; [3]", "value": 8.30}]}, {"compound": "Cc1cccc(C)c1OCC(=O)N[C@@H](Cc1ccccc1)[C@@H](O)C[C@H](Cc1ccccc1)NC(=O)[C@H](C(C)C)N1CCCNC1=O", "note": "[Lopinavir (LPV)]", "values": [{"measurement": "pEC50", "setting": "HIV-1 Bal [1]; [3]", "value": 7.40}, {"measurement": "lower Gag p24 concentration in culture supernatant vs untreated control", "setting": "HIV-1 Bal infected PBMCs", "value": "0.5-1 log"}, {"measurement": "relative titer of de novo produced virions", "setting": "HIV-1 Bal [2]", "value": 14, "unit": "%"}]}, {"compound": "Cc1nnc(C(=O)NC(C)(C)c2nc(C(=O)NCc3ccc(F)cc3)c(O)c(=O)n2C)o1", "note": "[Raltegravir (RLT)]", "values": [{"measurement": "pEC50", "setting": "HIV-1 Bal [1]; [3]", "value": 7.74}]}, {"compound": "CC(C)(C)NC(=O)[C@@H]1C[C@@H]2CCCC[C@@H]2CN1C[C@@H](O)[C@H](Cc1ccccc1)NC(=O)[C@H](CC(N)=O)NC(=O)c1ccc2ccccc2n1", "note": "[Saquinavir (SQV)]", "values": [{"measurement": "pEC50", "setting": "HIV-1 Bal [1]; [3]", "value": 7.46}, {"measurement": "lower Gag p24 concentration in culture supernatant vs untreated control", "setting": "HIV-1 Bal infected PBMCs", "value": "0.5-1 log"}, {"measurement": "relative titer of de novo produced virions", "setting": "HIV-1 Bal [2]", "value": 47, "unit": "%"}]}, {"compound": "C[C@H](Cn1cnc2c(N)ncnc21)OCP(=O)(O)O", "note": "[Tenofovir (TFV)]", "values": [{"measurement": "pEC50", "setting": "HIV-1 Bal [1]; [3]", "value": 5.32}]}, {"compound": "CC(C)=CCOc1cc(NC(=S)c2ccoc2C)ccc1Cl", "note": "[UC781]", "values": [{"measurement": "pEC50", "setting": "HIV-1 Bal [1]; [3]", "value": 7.46}, {"measurement": "relative titer of de novo produced virions", "setting": "HIV-1 Bal [2]", "value": 75, "unit": "%"}, {"measurement": "reduction in the infectivity of de novo produced virus", "setting": "H9+ cells", "value": "fivefold reduction"}]}, {"compound": "Griffithsin (GRFT): carbohydrate binding protein, binds glycans on gp120", "values": [{"measurement": "pEC50", "setting": "HIV-1 Bal [1]", "value": 8.82}, {"measurement": "times less infectious than virions from control cultures", "setting": "HIV-1 Bal [2]; 72 hours post-exposure, TZM-bl cells and PBMCs", "value": "two"}, {"measurement": "relative titer of de novo produced virions", "setting": "HIV-1 Bal [2]", "value": 31, "unit": "%"}]}]}
